Patent US20250352612A1, “PHARMACEUTICAL AGENT TO PREVENT THE ADVERSE EFFECTS OF ROTAVIRUS NSP4 PROTEIN” (priority 2022, published 2025)

What was measured:
Format in all cases: cell-based
IL-10 [1] = test: IL-10 mRNA levels (gene expression) after NSP4 and PlnA administration; details: NSP4 and PlnA containing agent together, Graph 5
IL-10 [2] = test: IL-10 protein levels after NSP4 and PlnA administration; details: NSP4 and PlnA-containing agent; for increase of IL-10 protein levels compared to the control group without any application: Graph 3
intestinal cell line = test: Intracellular calcium amount after NSP4 and PlnA administration in intestinal cell line; details: co-administration of NSP4 and PlnA-containing agent
Description: In an exemplary embodiment of the pharmaceutical agent developed with the present invention, a pharmaceutical agent containing the Lactobacillus plantarum bacteriocin Plantaricin A (PlnA) is used to reduce the intracellular calcium content of the rotavirus NSP4 protein in the intestinal cell line. Thus, the amount of intracellular calcium increased by the NSP4 protein is reduced and, therefore, cell death and ER disruption caused by rotavirus through apoptosis is prevented by this strategy.

Plantaricin A [PlnA-containing pharmaceutical agent]
increase of IL-10 mRNA level compared to the control group (IL-10 [1]; 12th hour): 0.68 fold | NSP4-induced suppression of IL-10 gene expression (IL-10 [1]): this suppression was reduced | increase of IL-10 protein levels compared to the control group without any application (IL-10 [2]; 3rd hour): 2 fold | increase of IL-10 protein levels compared to the control group without any application (IL-10 [2]; 6th hour): 1.43 fold | IL-10 protein levels compared to the control group (IL-10 [2]; 12 hours, Graph 4): no significant difference | increase of IL-10 protein levels compared to the control group (IL-10 [2]; 24 hours, Graph 4): 1.13 fold | decrease of amount of intracellular calcium compared to the NSP4-treated first group (intestinal cell line; 6th hour, Graph 1): 3.75 fold | decrease of amount of intracellular calcium compared to the control group (intestinal cell line; 6th hour, Graph 1): 1.64 fold | amount of intracellular calcium compared to the control group (intestinal cell line; 12 hours, Graph 2): the same amount of calcium was observed in the control group | decrease of amount of intracellular calcium compared to the first group administered NSP4 (intestinal cell line; 12 hours, Graph 2): 2.67 times
